In EP4467141A1, “PYRAZOLO-QUINOLINES AS SELECTIVE INHIBITORS OF GENOTOXIC STRESS-INDUCED IKK/NF- KB PATHWAYS FOR CANCER THERAPY” (Max-Delbrück-Centrum für Molekulare Medizin in der …, priority 2023, dated 2024):

Legend:
Test in all cases: Kinase panel study
Format in all cases: biochemical
Settings in all cases: read-out: Percentage of inhibition; for inhibition at 1 µM: 1000nM; for inhibition at 10 µM: 10000nM
EPHA2 = molecular target: T1, EPHA2 (Homo sapiens, UniProt P29317)
T1 construct: purchased Thermo Fisher Scientific
T1 sequence (P29317 24-976): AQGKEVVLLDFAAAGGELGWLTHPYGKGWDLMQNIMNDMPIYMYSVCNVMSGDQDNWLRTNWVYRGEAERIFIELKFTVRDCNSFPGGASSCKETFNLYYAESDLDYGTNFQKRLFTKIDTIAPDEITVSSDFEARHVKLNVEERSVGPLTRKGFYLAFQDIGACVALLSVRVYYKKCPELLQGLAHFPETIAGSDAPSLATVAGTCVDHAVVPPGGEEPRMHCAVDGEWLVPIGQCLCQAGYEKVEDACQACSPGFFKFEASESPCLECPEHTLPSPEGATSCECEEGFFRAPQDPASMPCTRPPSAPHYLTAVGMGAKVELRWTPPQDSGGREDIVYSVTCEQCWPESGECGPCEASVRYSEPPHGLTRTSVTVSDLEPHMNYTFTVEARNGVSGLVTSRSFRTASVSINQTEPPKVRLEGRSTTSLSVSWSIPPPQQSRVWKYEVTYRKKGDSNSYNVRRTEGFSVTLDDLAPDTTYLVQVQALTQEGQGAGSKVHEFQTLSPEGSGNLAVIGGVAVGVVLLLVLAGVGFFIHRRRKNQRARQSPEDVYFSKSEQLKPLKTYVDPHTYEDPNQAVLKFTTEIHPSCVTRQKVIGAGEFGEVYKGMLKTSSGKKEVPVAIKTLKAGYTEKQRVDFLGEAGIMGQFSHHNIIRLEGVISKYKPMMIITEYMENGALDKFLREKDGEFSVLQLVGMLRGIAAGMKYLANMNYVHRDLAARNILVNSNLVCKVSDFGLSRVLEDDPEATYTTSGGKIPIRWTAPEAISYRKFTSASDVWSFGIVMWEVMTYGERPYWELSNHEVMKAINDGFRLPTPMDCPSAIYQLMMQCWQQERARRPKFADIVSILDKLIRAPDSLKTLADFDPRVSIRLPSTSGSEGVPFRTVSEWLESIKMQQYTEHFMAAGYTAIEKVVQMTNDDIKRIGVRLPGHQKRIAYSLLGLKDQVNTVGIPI
Summary of the method: (§1)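 Percent inhibition of each kinase by the test compound, given at either 1 µM or 10 µM, came from a contracted panel run by ZLyte or Adapta protocol.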

SPHK2 = molecular target: T2, SPHK2 (Homo sapiens, UniProt Q9NRA0)
T2 construct: purchased Thermo Fisher Scientific
T2 sequence (Q9NRA0 1-654): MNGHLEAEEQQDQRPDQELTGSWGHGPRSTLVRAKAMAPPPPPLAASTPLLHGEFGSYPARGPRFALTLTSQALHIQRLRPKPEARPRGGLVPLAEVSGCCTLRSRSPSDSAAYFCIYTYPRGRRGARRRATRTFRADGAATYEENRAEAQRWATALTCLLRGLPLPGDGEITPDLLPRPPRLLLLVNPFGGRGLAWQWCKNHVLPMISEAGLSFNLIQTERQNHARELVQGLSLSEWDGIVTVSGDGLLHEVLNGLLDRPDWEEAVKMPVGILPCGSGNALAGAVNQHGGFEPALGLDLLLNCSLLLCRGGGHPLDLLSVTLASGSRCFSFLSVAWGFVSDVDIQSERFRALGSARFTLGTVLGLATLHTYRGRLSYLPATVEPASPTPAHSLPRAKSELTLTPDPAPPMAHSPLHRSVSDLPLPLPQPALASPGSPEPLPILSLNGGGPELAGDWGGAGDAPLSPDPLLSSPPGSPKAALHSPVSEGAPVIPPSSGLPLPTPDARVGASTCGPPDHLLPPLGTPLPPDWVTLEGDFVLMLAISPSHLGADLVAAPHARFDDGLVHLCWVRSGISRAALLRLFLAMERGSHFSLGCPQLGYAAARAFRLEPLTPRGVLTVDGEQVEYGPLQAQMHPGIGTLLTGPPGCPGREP
Summary of the method: as §1

PRKCI (PKC iota) = molecular target: T3, PRKCI (PKC iota) (Homo sapiens, UniProt P41743)
T3 construct: purchased Thermo Fisher Scientific
T3 sequence (P41743 1-596): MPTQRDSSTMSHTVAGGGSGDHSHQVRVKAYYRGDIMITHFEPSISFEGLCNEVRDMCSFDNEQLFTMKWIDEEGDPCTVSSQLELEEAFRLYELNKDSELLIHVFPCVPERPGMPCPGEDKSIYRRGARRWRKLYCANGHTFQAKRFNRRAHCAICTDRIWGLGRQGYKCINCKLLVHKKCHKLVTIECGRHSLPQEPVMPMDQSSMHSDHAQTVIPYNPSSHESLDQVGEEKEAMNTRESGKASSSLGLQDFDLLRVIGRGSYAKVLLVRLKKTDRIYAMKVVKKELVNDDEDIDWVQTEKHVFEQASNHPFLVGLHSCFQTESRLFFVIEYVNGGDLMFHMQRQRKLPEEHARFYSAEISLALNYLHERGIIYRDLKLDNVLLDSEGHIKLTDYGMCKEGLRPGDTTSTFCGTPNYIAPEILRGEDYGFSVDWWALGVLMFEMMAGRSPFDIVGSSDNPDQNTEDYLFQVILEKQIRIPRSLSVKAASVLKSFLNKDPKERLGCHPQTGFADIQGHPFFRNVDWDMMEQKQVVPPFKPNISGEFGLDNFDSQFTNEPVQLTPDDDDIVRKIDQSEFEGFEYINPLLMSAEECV
Summary of the method: as §1

BMX = molecular target: T4, BMX (Homo sapiens, UniProt P51813)
T4 construct: purchased Thermo Fisher Scientific
T4 sequence (P51813 1-675): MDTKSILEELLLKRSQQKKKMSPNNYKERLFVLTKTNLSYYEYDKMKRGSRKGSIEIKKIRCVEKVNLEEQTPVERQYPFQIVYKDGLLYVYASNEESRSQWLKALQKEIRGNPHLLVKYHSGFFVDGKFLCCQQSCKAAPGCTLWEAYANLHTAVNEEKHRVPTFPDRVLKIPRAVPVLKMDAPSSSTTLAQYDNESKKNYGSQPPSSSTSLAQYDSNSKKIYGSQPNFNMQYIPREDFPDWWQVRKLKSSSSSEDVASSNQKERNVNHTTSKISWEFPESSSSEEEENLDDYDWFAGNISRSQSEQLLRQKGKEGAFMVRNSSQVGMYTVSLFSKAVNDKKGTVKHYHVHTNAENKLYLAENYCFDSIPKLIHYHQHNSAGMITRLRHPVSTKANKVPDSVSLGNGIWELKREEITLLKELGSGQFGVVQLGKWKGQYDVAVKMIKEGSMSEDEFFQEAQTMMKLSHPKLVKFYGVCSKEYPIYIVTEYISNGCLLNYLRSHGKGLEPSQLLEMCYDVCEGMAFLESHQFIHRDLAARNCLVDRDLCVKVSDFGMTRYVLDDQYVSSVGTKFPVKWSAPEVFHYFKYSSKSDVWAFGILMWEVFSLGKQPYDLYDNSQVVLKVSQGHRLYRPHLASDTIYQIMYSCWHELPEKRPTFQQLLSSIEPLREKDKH
Summary of the method: as §1

PIK3C3 (hVPS34) = molecular target: T5, PIK3C3 (hVPS34) (Homo sapiens, UniProt Q8NEB9)
T5 construct: purchased Thermo Fisher Scientific
T5 sequence (Q8NEB9 whole entry): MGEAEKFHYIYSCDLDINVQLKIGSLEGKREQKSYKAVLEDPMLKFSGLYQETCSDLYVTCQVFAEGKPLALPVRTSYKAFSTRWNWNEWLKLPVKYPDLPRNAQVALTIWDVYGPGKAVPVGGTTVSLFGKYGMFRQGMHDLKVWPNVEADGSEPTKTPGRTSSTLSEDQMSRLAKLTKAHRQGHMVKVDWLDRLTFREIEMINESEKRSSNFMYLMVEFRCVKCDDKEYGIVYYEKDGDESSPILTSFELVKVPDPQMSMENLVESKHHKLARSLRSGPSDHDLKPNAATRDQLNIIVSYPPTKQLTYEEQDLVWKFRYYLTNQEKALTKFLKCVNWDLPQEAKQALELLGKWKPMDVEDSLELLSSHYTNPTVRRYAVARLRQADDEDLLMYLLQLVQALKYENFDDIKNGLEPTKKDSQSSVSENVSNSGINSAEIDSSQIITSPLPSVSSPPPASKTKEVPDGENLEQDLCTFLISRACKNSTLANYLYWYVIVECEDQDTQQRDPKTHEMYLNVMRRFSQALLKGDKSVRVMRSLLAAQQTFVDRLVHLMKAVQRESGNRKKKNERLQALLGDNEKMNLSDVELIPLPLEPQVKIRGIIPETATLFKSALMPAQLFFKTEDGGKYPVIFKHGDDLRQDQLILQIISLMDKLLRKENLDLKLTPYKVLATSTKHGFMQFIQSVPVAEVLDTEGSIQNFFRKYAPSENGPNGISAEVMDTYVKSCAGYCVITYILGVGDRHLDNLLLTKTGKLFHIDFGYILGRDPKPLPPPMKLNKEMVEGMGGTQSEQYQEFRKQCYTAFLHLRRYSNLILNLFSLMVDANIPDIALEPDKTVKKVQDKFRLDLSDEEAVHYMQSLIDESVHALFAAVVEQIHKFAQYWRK
Summary of the method: as §1

RPS6KA6 (RSK4) = molecular target: T6, RPS6KA6 (RSK4) (Homo sapiens, UniProt Q9UK32)
T6 construct: purchased Thermo Fisher Scientific
T6 sequence (Q9UK32 whole entry): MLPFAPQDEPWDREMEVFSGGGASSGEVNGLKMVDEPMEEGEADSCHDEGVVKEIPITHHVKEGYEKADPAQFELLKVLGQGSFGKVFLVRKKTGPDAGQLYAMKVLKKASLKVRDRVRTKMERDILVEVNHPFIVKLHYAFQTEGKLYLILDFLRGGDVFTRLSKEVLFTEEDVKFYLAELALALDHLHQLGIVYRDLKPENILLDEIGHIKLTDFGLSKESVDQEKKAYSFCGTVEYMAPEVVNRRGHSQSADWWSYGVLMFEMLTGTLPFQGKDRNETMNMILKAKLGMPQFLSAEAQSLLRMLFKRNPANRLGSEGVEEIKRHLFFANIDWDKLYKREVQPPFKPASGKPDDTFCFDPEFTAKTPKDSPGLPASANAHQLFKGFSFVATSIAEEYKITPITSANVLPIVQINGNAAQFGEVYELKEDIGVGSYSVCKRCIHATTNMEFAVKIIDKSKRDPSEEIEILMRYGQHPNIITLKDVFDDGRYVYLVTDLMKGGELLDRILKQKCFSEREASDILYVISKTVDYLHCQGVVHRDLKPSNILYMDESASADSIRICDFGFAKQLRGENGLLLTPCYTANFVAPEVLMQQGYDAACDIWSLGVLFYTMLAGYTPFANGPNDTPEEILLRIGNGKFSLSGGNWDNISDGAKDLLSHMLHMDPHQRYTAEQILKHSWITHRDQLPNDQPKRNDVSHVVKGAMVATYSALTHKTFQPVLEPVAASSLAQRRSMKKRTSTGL
Summary of the method: as §1

SMILES	inhibition at 1 µM (EPHA2)	inhibition at 10 µM (EPHA2)	inhibition at 1 µM (SPHK2)	inhibition at 10 µM (SPHK2)	inhibition at 1 µM (PRKCI (PKC iota))	inhibition at 10 µM (PRKCI (PKC iota))	inhibition at 1 µM (BMX)	inhibition at 10 µM (BMX)	inhibition at 1 µM (PIK3C3 (hVPS34))	inhibition at 10 µM (PIK3C3 (hVPS34))	inhibition at 1 µM (RPS6KA6 (RSK4))	inhibition at 10 µM (RPS6KA6 (RSK4))
COc1ccc2c(c1OC)c(=O)n1c3ccc(O)cc3c3ccnc2c31 [MW01, 5-Hydroxy-10,11-dimethoxy-9H-benzo[c]indolo[3,2,1-ij][1,5]naphthyridin-9-one]	6%	14%	-16%	-8%	4%	-8%	-8%	6%	23%	49%	5%	17%
COc1ccc2cc3c(N)nn(C(=O)c4cccc(N(C)C)c4)c3nc2c1 [MW05, (3-Amino-7-methoxypyrazolo[3,4-b]quinolin-1-yl)-[3-(dimethylamino)phenyl]methanone]	13%	-15%	-7%	-4%	20%	6%	-10%	4%	4%	4%	2%	4%
